A word on the IC50: it is the concentration that inhibits the measured activity by half.

Values joined by “and” are separate entries in the source; they are usually repeats but may differ in a detail not shown here. Identical values can stand only once.

The values that follow come from the COVID Moonshot data (paper PMC7615835).

This assay addresses SARS-CoV-2 Main Protease (SARS-CoV-2) (UniProt P0DTD1).
For `NC(=O)c1ccncc1NC(=O)Cc1cccc(Cl)c1`, the half-maximal inhibitory concentration (IC50) is more than 99.5 µM.
In turn, `Cn1c(CNCC2(C(=O)Nc3cncc4ccccc34)CCOc3ccc(Cl)cc32)nc2c1c(=O)[nH]c(=O)n2C` (stereo not drawn) returned a 50% inhibitory concentration (IC50) of more than 99.5 µM.
To `O=C(NNc1nc2cccnc2s1)c1ccc2ccncc2c1` belongs more than 99.5 µM.
In the case of `O=C(Cc1cccc(Cl)c1)NC1C(=O)NCc2ccccc21` (stereo not drawn), the IC50 is more than 99.5 µM.
To `C[C@@H]1CC[C@@]2(OC1)O[C@H]1C[C@H]3[C@@H]4CC=C5C[C@@H](O)CC[C@]5(C)[C@H]4CC[C@]3(C)[C@]1(O)[C@@H]2C` (stereo in doubt) belongs more than 99.5 µM; to `O=C(Nc1cc(=O)[nH]c2ccccc12)C1CCOc2ccc(Cl)cc21` (stereo not drawn), more than 99.5 µM.
To `C=CC(=O)N(Cc1ccccc1Cl)C(C(=O)NC)c1cncc2ccccc12` (stereo not drawn) belongs more than 99.5 µM; to `CS(=O)(=O)c1ccc2c(NC(=O)C3CN(CC(=O)NC4CCC4)C(=O)c4ccc(Cl)cc43)cncc2c1` (stereo not drawn), 0.252 µM; to `O=C(Cc1cc(Cl)cc(NCCCN2CCS(=O)(=O)CC2)c1)Nc1cncc2ccccc12`, 1.92 µM.
Compound `O=C(Cc1cc(Cl)cc(Nc2ccc(C(F)(F)F)cn2)c1)Nc1cncc2ccccc12` showed an IC50 of 3.96 µM.
The figure for `CC(C)(C)N(Cc1ccccc1)c1cc(Cl)cc(CC(=O)Nc2cncc3ccccc23)c1` is 1.91 µM; for `Cc1nnc(CNc2ccc3nnc(-c4ccccc4)n3n2)o1` it is more than 99.5 µM.
Regarding `O=C(c1cc(=O)[nH]c2ccccc12)N1CCN(c2cccc(Cl)c2)C(=O)C1`, the IC50 was 15.8 µM.
To `C[n+]1ccn(CCCc2cccc(Cl)c2)c1C#N` belongs more than 99.5 µM; to `O=C(Nc1ccccc1)[C@H]1CN(C(=O)CCl)CCN1S(=O)(=O)c1ccsc1` (stereo in doubt), 0.386 µM; to `Cn1ncc2cc(N(C(=O)c3cnc[nH]3)C(C(=O)NCCc3cccc(F)c3)c3cccnc3)ccc21` (stereo not drawn), more than 99 µM.
For `O=C(CCl)N1CCCN(S(=O)(=O)c2ccccc2F)CC1`, the half-maximal inhibitory concentration (IC50) was found to be 15.6 µM.
In the case of `Cn1c(NC(=O)c2cccnc2-n2cccn2)nc2cc(F)ccc21`, the IC50 is more than 99.5 µM.
The compound `CC(C)S(=O)(=O)Nc1ccc2c(NC(=O)C3CN(S(=O)(=O)CC4(C#N)CC4)Cc4ccc(Cl)cc43)cncc2c1` (stereo not drawn) had an IC50 of 0.0898 µM.
The figure for `Cc1c(Br)cccc1Nc1cc(Cl)cc(CC(=O)Nc2cncc3ccccc23)c1` is 2.13 µM.
For the compound `N#Cc1ncc(Cl)cn1`, the IC50 is more than 99.5 µM.
`O=C(Nc1cncc2ccncc12)C1CCOc2cc(F)c(Cl)cc21` (stereo not drawn): the IC50 is 1.1 µM.
The figure for `O=C(Nc1cncc2ccccc12)C1CCOc2c(OCCC(F)(F)F)cc(Cl)cc21` (stereo not drawn) is 3.14 µM.
The figure for `O=C(CN1CC(C(=O)Nc2cncc3cc(F)ccc23)c2cc(Cl)ccc2C1=O)NCC(F)(F)F` (stereo not drawn) is 0.879 µM; for `O=C(Nc1cncc2ccccc12)[C@H]1CN(S(=O)(=O)CC2CS(=O)(=O)C2)Cc2ccc(Cl)cc21` (stereo in doubt) it is 0.0505 µM and 0.108 µM and 0.0737 µM; for `CC(C)(C)c1ccc(N(C(=O)c2c[nH]c(=O)s2)C(C(=O)NCCc2cccc(F)c2)c2cccnc2)cc1` (stereo not drawn) it is 29.1 µM.
To `COC[C@@]1(C(=O)Nc2cncc3ccccc23)CCOc2cc(Cl)c(Cl)cc21` (stereo in doubt) belongs 13 µM and 21.9 µM; to `COc1cccc(C2=N/C(=C/c3sccc3C)C(=O)O2)c1`, 1.17 µM.
`O=C(CCl)N1CCN(Cc2cnc(Cc3ccccc3)s2)CC1` gave an IC50 of 29.8 µM.
`O=C(NCCc1cccc(F)c1)C(c1cccnc1)N(C(=O)c1cocn1)c1ccc(C(F)(F)F)nc1` (stereo not drawn) showed a half-maximal inhibitory concentration (IC50) of 36.4 µM.
The figure for `COc1ccccc1OCCNC(=O)c1cc(=O)[nH]c2cc(F)ccc12` is more than 99.5 µM; for `CCCCc1nc(-c2nccn2CCc2ccccn2)c[nH]1` it is 21.7 µM.
For the compound `Cn1cnc2cc(N(C(=O)c3cnc[nH]3)C(C(=O)NCCc3cccc(F)c3)c3cccnc3)ccc21` (stereo not drawn), the IC50 is more than 99 µM.
Take `Cc1ccncc1NC(=O)CC(C)C(C)C` (stereo not drawn): the concentration for half-maximal inhibition (IC50) was more than 99 µM.
Take `CC1(CS(=O)(=O)N2Cc3ccc(Cl)cc3[C@@H](C(=O)Nc3cncc4ccccc34)C2)CC1` (stereo in doubt): the half-maximal inhibitory concentration (IC50) is 4.58 µM.
To `O=C(Nc1nncn1C1CC1)C1CCS(=O)(=O)c2ccccc21` (stereo not drawn) belongs 68.9 µM; to `CN1CCN(c2cncc3ccccc23)C(=O)C1c1cccc(Cl)c1` (stereo not drawn), 2.21 µM.
To `O=C(CCl)N1CCN(Cc2cc(O)ccc2O)CC1` belongs 37.4 µM; to `Cc1cccc2c(NC(=O)Cc3cccc(Cl)c3)cncc12`, more than 99.5 µM.
With `COc1ccc(N(C(=O)c2cocn2)C(C(=O)NCCc2cccc(F)c2)c2cccnc2)cc1` (stereo not drawn), the half-inhibitory concentration (IC50) came to 22.2 µM.
To `CC(C)(C)c1ccc(N(C(=O)c2scnc2Cl)C(C(=O)NCCc2cccc(F)c2)c2cccnc2)cc1` (stereo not drawn) belongs more than 99.5 µM; to `O=C(Cc1cccc(Cl)c1)Nn1nnc2ccccc21`, 5.8 µM; to `O=C(Cn1nnc2ccccc21)N(Cc1ccccn1)c1ccc(-n2cnnc2)cc1`, more than 99.5 µM.
The figure for `C=CC(=O)N(c1ccc(C(C)(C)C)cc1)C(C(=O)NCC)c1cccnc1` (stereo not drawn) is 45.5 µM; for `Cc1ccncc1NC(=O)Nc1cccc(C#N)c1` it is more than 99 µM.
As for `Cc1c(N)cncc1NC(=O)Cc1cccc(C#N)c1`, the concentration for half-maximal inhibition (IC50) stood at 16.1 µM.
The figure for `O=C(Nc1cncc2ccccc12)C1CN(S(=O)(=O)C2CCOC2)Cc2ccc(Cl)cc21` (stereo not drawn) is 0.152 µM; for `O=C(Cc1cccc(Cl)c1)Nc1cncc2[nH]ncc12` it is 21.8 µM.
`COc1cc(Nc2cc(Cl)cc(CC(=O)Nc3cncc4ccccc34)c2)cc(OC)c1`: the IC50 is 1.96 µM.
For the compound `CC(C)(C)OC(=O)NCCNC(=O)C(c1cccnc1)N(C(=O)c1cocn1)c1ccc(C(C)(C)C)cc1` (stereo not drawn), the 50% inhibitory concentration (IC50) amounted to 6.26 µM.
To `NC1CCc2c(NC(=O)C3CCOc4ccc(Cl)cc43)cncc21` (stereo not drawn) belongs 25.8 µM.
To `Cc1ccncc1NC(=O)Cc1cc(Cl)cc(/C=C(/c2ccccc2)C(F)(F)F)c1` belongs 22.8 µM; to `O=C(Nc1cncc2ccccc12)C(CO)c1ccc(Cl)c(Cl)c1` (stereo not drawn), 19.3 µM; to `O=C(NCCc1cccc(F)c1)C(c1cccnc1)N(C(=O)c1cnc[nH]1)c1ccc2c(c1)CCCS2(=O)=O` (stereo not drawn), more than 99 µM.
To `Cc1ccc(S(=O)(=O)N2CCN(C(=O)CCl)C[C@H]2C(=O)NC2CCCCC2)cc1` (stereo in doubt) belongs 4.48 µM; to `Cc1nccn1Cc1ccc2c(NC(=O)C3CCOc4ccc(Cl)cc43)cncc2c1` (stereo not drawn), 5.32 µM; to `CC(C)(C)c1ccc(N(C(=O)c2c[nH]c(=O)[nH]2)C(C(=O)NCCc2cccc(F)c2)c2cccnc2)cc1` (stereo not drawn), 15.9 µM.
In turn, `Cc1ccncc1N1CCC(c2cccc(Cl)c2)C1=O` (stereo not drawn) gave an IC50 of 44.7 µM.
Take `Cn1cc(CN2Cc3ccc(Cl)cc3C(C(=O)Nc3cncc4ccc(F)cc34)C2)nn1` (stereo not drawn): the half-inhibitory concentration (IC50) turned out to be 0.914 µM.
`CN(CC#N)S(=O)(=O)N1Cc2ccc(Cl)cc2C2(CCN(c3cncc4ccccc34)C2=O)C1` (stereo not drawn) showed an IC50 of 0.407 µM.
For `CC(NC(=O)C1CCC(=O)NC1)(C(=O)Nc1cncc2ccccc12)c1ccc(Cl)c(Cl)c1` (stereo not drawn), the half-maximal inhibitory concentration (IC50) was determined as 4.1 µM.
The figure for `O=C(Cc1cc(Cl)cc(Nc2ccccc2Oc2ccccc2)c1)Nc1cncc2ccccc12` is 2.19 µM.
`O=C(Nc1ccc(Cl)cc1)[C@@H](c1ccccc1)N1Cc2ccccc2C1=O` (stereo in doubt) displayed an IC50 of more than 99.5 µM.
Compound `O=C(Cc1cccc(Cl)c1)Nc1cncc2cnoc12` had an IC50 of 23.9 µM.
To `Cn1cc(C(=O)N(c2ccc(C(C)(C)C)cc2)C(C(=O)NCCc2cccc(F)c2)c2cccnc2)ncc1=O` (stereo not drawn) belongs more than 99.5 µM; to `Cc1cc(NC(=O)C2CCOc3ccc(Cl)cc32)ncc1N` (stereo not drawn), more than 99.5 µM; to `O=C(N/N=c1\cc[nH]c2ccccc12)c1ccc2ncccc2c1`, more than 99.5 µM.
The compound `C=CC(=O)N(c1ccc(C(C)(C)C)cc1)C(C(=O)NCCc1cccc(F)c1)c1cncc(C#N)c1` (stereo not drawn) returned an IC50 of 7.48 µM.
`COC1(CS(=O)(=O)N2Cc3ccc(Cl)cc3C3(CCN(c4cncc5cc(S(C)(=O)=O)ccc45)C3=O)C2)CC1` (stereo not drawn) displayed a half-maximal inhibitory concentration (IC50) of 0.413 µM.
The figure for `O=C(c1cc(=O)[nH]c2ccccc12)N1CCN(Cc2cccc(Cl)c2)CC1` is 4.57 µM; for `NS(=O)(=O)c1ccc2c(c1)CN(CC1CCN(C(=O)CCl)CC1)CC2` it is 19.5 µM; for `C=CC(=O)N(c1cc(C(C)(C)C)on1)C(C(=O)NCCc1cccc(F)c1)c1cncc(O)c1` (stereo not drawn) it is more than 99.5 µM.
`CCNC(=O)CN1CC(C(=O)Nc2cncc3cc(F)ccc23)c2cc(Cl)ccc2C1=O` (stereo not drawn) had a half-inhibitory concentration (IC50) of 0.161 µM.
The figure for `O=C(c1ccc2nc(C(F)F)[nH]c2c1)N1CCC(C2CCNC2)CC1` (stereo not drawn) is more than 99.5 µM; for `O=C(O)c1ccc(CNCc2c[nH]nc2-c2cccs2)cc1` it is more than 99.5 µM.
In turn, `CCOc1ccc(N(C(=O)c2cocn2)C(C(=O)NCCc2cccc(F)c2)c2cccnc2)cn1` (stereo not drawn) showed an IC50 of more than 99.5 µM.
Regarding `CNC1CCc2c(NC(=O)C3CCOc4ccc(Cl)cc43)cncc21` (stereo not drawn), the IC50 is more than 99.5 µM.
To `O=C(Nc1cncc2ccccc12)C1CN(S(=O)(=O)[C@@H]2CCC[C@H]2O)Cc2ccc(Cl)cc21` (stereo in doubt) belongs 0.129 µM and 0.146 µM.
The figure for `N#Cc1cc(Cl)c(Nc2cc(Cl)cc(CC(=O)Nc3cncc4ccccc34)c2)c(Cl)c1` is 1.79 µM.
Compound `CNC(=O)CN1CC(C)(C(=O)Nc2cncc3cc(Cl)ccc23)c2cc(Cl)ccc2S1(=O)=O` (stereo not drawn) registered an IC50 of 0.393 µM.
The figure for `O=C(CCl)N1CCCc2cc(NCc3ccc(F)cc3Cl)ccc21` is 19.3 µM; for `CNC(=O)CN1Cc2ccc(Cl)cc2[C@@]2(CCN(c3cncc4c3CCCC4)C2=O)C1` (stereo in doubt) it is 0.235 µM.
With `O=C(Nc1cccnc1)[C@@H](c1ccccc1)N1Cc2ccccc2C1=O` (stereo in doubt), the IC50 is more than 99.5 µM.
In turn, `O=C(Cc1cc(Cl)cc(Br)c1)Nc1cncc2ccccc12` showed an IC50 of more than 9.95 µM.
To `O=C(NCCc1ccccc1)[C@H]1CN(C(=O)CCl)CCN1S(=O)(=O)c1ccsc1` (stereo in doubt) belongs 2.43 µM; to `COc1ccccc1OCCNC(=O)c1cc(N)cc2ccccc12`, more than 99.5 µM.
To `O=C(Cc1cccc(Cl)c1)Nc1cncc2c1NCCC2` belongs 38 µM; to `Cc1nn(-c2cc(Cl)cc(CC(=O)Nc3cncc4ccccc34)c2)c(N)c1Br`, 1.72 µM.
